In the test the target is RIPK1 (recombinant GST-RIPK1 kinase domain, residues 1-327) (Homo sapiens (Human), UniProt Q13546). The test can be described thus: RIPK1-ADP-Glo Enzymatic Assay. The format is biochemical. Particulars: ADP-Glo; 25 nM GST-RIPK1, 300 μM ATP; assay lower limit ~25 nM; read-out: RIPK1 V0 Ec50. An outline of the steps:
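Using dephosphorylated MBP (3 μM) as substrate and 300 μM ATP, 25 nM baculovirus-produced enzyme was reacted for 150 min after a 30-min compound pre-incubation. Luminescent ADP detection followed; lower confidence limit ~25 nM.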
(In ADP-Glo the light output rises with the ADP produced.)

Counter-ions that a name gives are not always drawn.

RIPK1 (recombinant GST-RIPK1 kinase domain, residues 1-327), sequence (Q13546 1-327): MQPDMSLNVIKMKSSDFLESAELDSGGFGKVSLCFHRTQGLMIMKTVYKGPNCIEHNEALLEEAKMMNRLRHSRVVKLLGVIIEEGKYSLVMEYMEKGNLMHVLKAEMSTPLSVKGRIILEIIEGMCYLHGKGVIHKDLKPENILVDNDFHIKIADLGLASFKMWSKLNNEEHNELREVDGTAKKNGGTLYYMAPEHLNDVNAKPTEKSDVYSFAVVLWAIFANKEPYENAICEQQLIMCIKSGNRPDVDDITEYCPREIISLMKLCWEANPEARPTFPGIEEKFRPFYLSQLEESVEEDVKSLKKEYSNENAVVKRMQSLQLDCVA

Broadly, the EC50 is the concentration needed to bring the measured effect to its halfway point. As for `O=C(c1ccc(F)c(F)n1)N1CCC2(CC1)O[C@@H]1CC[C@@H](c3cc(F)cc(F)c3)N1C2=O` [Example 6.94, (5′S,7a′R)-5′-(3,5-difluorophenyl)-1-(5,6-difluoropyridine-2-carbonyl)tetrahydro-3′H-spiro[piperidine-4,2′-pyrrolo[2,1-b] [1,3]oxazol]-3′-one], the EC50 turned out to be 30.5 nM.
As to `O=C1N2[C@@H](CC[C@H]2c2ccccc2)OC12CCN(c1ccc(F)c3ncnn13)CC2` [Example 4.223, (5′S,7a′R)-1-(8-fluoro[1,2,4]triazolo[1,5-a]pyridin-5-yl)-5′-phenyltetrahydro-3′H-spiro[piperidine-4,2′-pyrrolo[2,1-b] [1,3]oxazol]-3′-one], the EC50 is below 25 nM.
Turning to `O=C1N2[C@H](OC13CCN(c1ccnc4c(F)cnn14)CC3)[C@@H](O)C[C@H]2c1ccccc1` [Example 4.271, (5′S,7′S,7a′R)-1-(3-fluoropyrazolo[1,5-a]pyrimidin-7-yl)-7′-hydroxy-5′-phenyltetrahydro-3′H-spiro[piperidine-4,2′-pyrrolo[2,1-b] [1,3]oxazol]-3′-one], the EC50 was below 25 nM.
With `NC(=O)c1ccc(N2CCC3(CC2)O[C@@H]2CC[C@@H](c4ccccc4)N2C3=O)nc1` [Example 4.199, 6-[(5′S,7a′R)-3′-oxo-5′-phenyltetrahydro-1H,3′H-spiro[piperidine-4,2′-pyrrolo[2,1-b] [1,3]oxazol]-1-yl]pyridine-3-carboxamide], the EC50 was 36.2 nM.
In the case of `O=C(c1cccc(N2CCCC2)n1)N1CCC2(CC1)O[C@@H]1CC[C@@H](c3cc(F)cc(F)c3)N1C2=O` [Example 6.96, (5′S,7a′R)-5′-(3,5-difluorophenyl)-1-[6-(pyrrolidin-1-yl)pyri-dine-2-carbonyl]tetra-hydro-3′H-spiro[piperi-dine-4,2′-pyrrolo[2,1-b][1,3]oxazol]-3′-one], the EC50 came to 31.6 nM.
Then `N#Cc1ccc(C(=O)N2CCC3(CC2)O[C@@H]2CC[C@@H](c4cc(F)cc(F)c4)N2C3=O)cc1F` [Example 5.19, 4-((5′S,7a′R)-5′-(3,5-difluorophenyl)-3′-oxo-tetrahydro-3′H-spiro [piperidine-4,2′-pyrrolo-[2,1-b]oxazole]-1-carbon-yl)-2-fluorobenzonitrile], with 333 nM; and `O=C1N2[C@@H](CC[C@H]2c2cc(F)cc(F)c2)OC12CCN(c1ccc(Br)c3ncnn13)CC2` [Example 13.7, (5′S,7a′R)-1-(8-bromo-[1,2,4]triazolo[1,5-a]pyridin-5-yl)-5′-(3,5-difluorophenyl)tetrahydro-3′H-spiro[piperidine-4,2′-pyrrolo[2,1-b]oxazol]-3′-one], with below 25 nM.
Then `COC(=O)c1cnc(N2CCC3(CC2)O[C@@H]2CC[C@@H](c4ccccc4)N2C3=O)c(OC)c1` [Example 4.197, methyl 5-methoxy-6-[(5′S,7a′R)-3′-oxo-5′-phenyltetrahydro-1H,3′H-spiro[piperidine-4,2′-pyrrolo[2,1-b] [1,3]oxazol]-1-yl]pyridine-3-carboxylate], with 25.1 nM; and `COC1(C)CN(C(=O)c2nc(N3CCC4(CC3)O[C@@H]3CC[C@@H](c5cc(F)cc(F)c5)N3C4=O)ncc2F)C1` [Example 7.6, (5′S,7a′R)-5′-(3,5-difluorophenyl)-1-[5-fluoro-4-(3-methoxy-3-methylazetidine-1-carbonyl)pyrimidin-2-yl]tetrahydro-3′H-spiro[piperidine-4,2′-pyrrolo[2,1-b][1,3]oxazol]-3′-one], with 271 nM; and `O=C(C1CC1)N1CCC2(CC1)O[C@@H]1CC[C@@H](c3cc(F)cc(F)c3)N1C2=O` [Example 1.8, (5′S,7a′R)-1-(cyclopropanecarbonyl)-5′-(3,5-difluorophenyl)tetrahydro-3′H-spiro[piperidine-4,2′-pyrrolo[2,1-b] [1,3]oxazol]-3′-one], with 256 nM.
Turning to `CC1CN(C(=O)c2ccccc2)CCC12O[C@@H]1CC[C@@H](c3cc(F)cc(F)c3)N1C2=O` (single isomer, unassigned) [Example 2.6, (3[S or R],4[S or R], 5′S,7a′R)-1-benzoyl-5′-(3,5-difluorophenyl)-3-methyltetrahydro-3′H-spiro[piperidine-4,2′-pyrrolo[2,1-b]oxazol]-3′-one], the EC50 is below 25 nM.
As to `CC1CN(c2ccnc3ccnn23)CCC12O[C@@H]1CC[C@@H](c3ccccc3)N1C2=O` (stereo partly drawn) [Example 4.246, (4R,5′S,7a′R)-3-methyl-5′-phenyl-1-(pyrazolo[1,5-a]pyrimidin-7-yl)tetrahydro-3′H-spiro[piperidine-4,2′-pyrrolo[2,1-b] [1,3]oxazol]-3′-one], the EC50 is below 25 nM.
Take `N#Cc1cc(N2CCC3(O[C@@H]4CC[C@@H](c5ccccc5)N4C3=O)C(F)C2)ncn1` (single isomer, unassigned) [Example 4.94, 6-((3[R or S],4[S or R], 5′S,7a′R)-3-fluoro-3′-oxo-5′-phenyltetrahydro-3′H-spiro[piperidine-4,2′-pyrrolo[2,1-b]oxazol]-1-yl)pyrimidine-4-carbonitrile]: the EC50 was found to be 154 nM.
Then `O=C1N2[C@@H](CC[C@H]2c2cc(F)cc(F)c2)OC12CCN(c1ncc(F)c3ncnn13)CC2` [Example 4.90, (5′S,7a′R)-5′-(3,5-difluorophenyl)-1-(8-fluoro-[1,2,4]triazolo [1,5-c]pyrimidin-5-yl)tetrahydro-3′H-spiro[piperidine-4,2′-pyrrolo[2,1-b]oxazol]-3′-one, TFA salt], with 380 nM; and `O=C(c1cc(I)c(I)c(I)c1)N1CCC2(CC1)O[C@@H]1CC[C@@H](c3cc(F)cc(F)c3)N1C2=O` [Example 5.65, (5′S,7a′R)-5′-(3,5-difluoro-phenyl)-1-(3,4,5-triiodo-benzoyl)tetrahydro-3′H-spiro[piperidine-4,2′-pyrrolo[2,1-b]oxazol]-3′-one], with 244 nM; and `CC1CC2(CCN1c1ccnc3c(F)cnn13)O[C@@H]1CC[C@@H](c3ccccc3)N1C2=O` (stereo partly drawn) [Example 4.225, (4R,5′S,7a′R)-1-(3-fluoropyrazolo[1,5-a]pyrimidin-7-yl)-2-methyl-5′-phenyltetrahydro-3′H-spiro[piperidine-4,2′-pyrrolo[2,1-b] [1,3]oxazol]-3′-one], with 31.8 nM.
For the molecule `O=C(c1ncn2ccccc12)N1CCC2(CC1)O[C@@H]1CC[C@@H](c3cc(F)cc(F)c3)N1C2=O` [Example 5.74, (5′S,7a′R)-5′-(3,5-difluoro-phenyl)-1-(imidazo[1,5-a]-pyridine-1-carbonyl)tetra-hydro-3′H-spiro[piperi-dine-4,2′-pyrrolo[2,1-b]oxazol]-3′-one], the EC50 was found to be 42.4 nM.
Take `O=C1N2[C@@H](CC[C@H]2c2ccccc2)OC12CCN(c1cccc3ncnn13)CC2F` (single isomer, unassigned) [Example 13.17, (3[R or S], 4[S or R], 5′S,7a′R)-1-([1,2,4]triazolo[1,5-a]pyridin-5-yl)-3-fluoro-5′-phenyltetrahydro-3′H-spiro[piperidine-4,2′-pyrrolo[2,1-b]oxazol]-3′-one, TFA salt]: the EC50 is below 25 nM.
For `O=C1N2[C@@H](CC[C@H]2c2ccccc2)OC12CCN(c1nc3ccncc3o1)CC2` [Example 4.158, (5′S,7a′R)-1-([1,3]oxazolo[5,4-c]pyridin-2-yl)-5′-phenyltetrahydro-3′H-spiro[piperidine-4,2′-pyrrolo[2,1-b] [1,3]oxazol]-3′-one], the EC50 stood at 50.8 nM.

For the origin of these results see US12180226B2, “Spirotricycle RIPK1 inhibitors and methods of uses thereof” (Merck Sharp & Dohme LLC, priority 2021, dated 2024).
